Source: paper PMC5328764 (Physiological Reports, 2017)

Key:
healthy volunteers [1] = assay: Doppler ultrasound blood flow in superior mesenteric artery, celiac trunk and renal artery (RI, TAMV); type: in vivo, human; details: healthy volunteers n = 8, s.c. GLP‐1 and GLP‐1 9–36amide 1.5 nmol/kg, exenatide 10 μg, 0–120 min
Description: (§1) Intravenous access was then established. […] Baseline measurements were made twice during the resting period.

healthy volunteers [2] = assay: Serum insulin and C‐peptide after s.c. injection (ECLIA); type: in vivo, human; details: fasting healthy volunteers n = 8; for Effect on insulin and C‐peptide (in words): s.c. 1.5 nmol/kg, 0–120 min
Procedure: Plasma insulin and C‐peptide levels were measured on a Cobas® 8000, e602 module (Roche Diagnostics GmbH, Mannheim) using, respectively, Cobas Insulin reagents and Cobas Insulin Calibrator, and Cobas C‐Peptide reagents and Cobas C‐Peptide Calibrator. The Cobas module employs a sandwich electro‐chemiluminescense immunoassay (ECLIA).
as §1
Analyses of normally distributed data were conducted by two‐way ANOVA followed by Tukey post hoc testing if the ANOVA indicated significant differences between the study days.

healthy volunteers [3] = assay: Cardiovascular measurements by task force monitor (heart rate, blood pressure, cardiac output, stroke volume); type: in vivo, human; details: for Effect on heart rate (in words): s.c. GLP‐1 and GLP‐1 9–36amide 1.5 nmol/kg, exenatide 10 μg, 0–120 min, two‐way ANOVA, Tukey post hoc
Procedure: Cardiac parameters were continuously measured from time −15 to 120 min. The task force monitor (TFM; CN Systems, Graz, Austria) continuously measures the heart rate, blood pressure (by finger plethysmography), cardiac output (by impedance cardiography), and calculates stroke volume (SV). The continuous, beat‐to‐beat measuring of blood pressure was supplemented with the conventional noninvasive oscillometric blood pressure measurement. […] This was done to eliminate brief or short‐lasting changes in cardiac parameters due to accidental movement of the volunteer or slight disturbance during scanning.
as §1

healthy volunteers [4] = assay: Plasma glucose after s.c. injection (glucose oxidase method); type: in vivo, human
Procedure: Plasma glucose was measured by the glucose oxidase method using a glucose analyzer (Yellow Springs Instrument, YSI Inc., Yellow Springs, OH).
as §1

[5] = Plasma concentrations of the test substances by radioimmunoassay after s.c. injection; details: eight healthy volunteers
healthy volunteers [6] = assay: Plasma pancreatic polypeptide (PP) after s.c. injection (radioimmunoassay); type: in vivo, human; details: fasting healthy volunteers; s.c. GLP‐1 1.5 nmol/kg; due to excursions in a subset of participants
Description: as §1

[7] = healthy volunteers n = 8, supine

Row | Molecule | Changes in blood flow parameters in the mesenteric or renal arteries (healthy volunteers [1]) | Effect on insulin and C‐peptide (in words) (healthy volunteers [2]) | Time until which C‐peptide levels remained elevated (healthy volunteers [2]; s.c. GLP‐1 1.5 nmol/kg) | Time of insulin peak (healthy volunteers [2]; s.c. GLP‐1 1.5 nmol/kg, exenatide 10 μg (for exenatide insulin and C‐peptide)) | Time of peak heart rate increase (healthy volunteers [3]; healthy volunteers n = 8, supine, s.c. GLP‐1 1.5 nmol/kg) | Maximum increase in heart rate (healthy volunteers [3]; healthy volunteers n = 8, supine, s.c. GLP‐1 1.5 nmol/kg, peaking at 30 min) | Effect on heart rate (in words) (healthy volunteers [3]; [7]) | Effect on cardiac output (in words) (healthy volunteers [3]; healthy volunteers n = 8, impedance cardiography, 120 min period, on the placebo day decrease by about 1 L/min) | Effect on stroke volume (in words) (healthy volunteers [3]; healthy volunteers n = 8, s.c. GLP‐1 1.5 nmol/kg, lower values at 15 and 30 min) | Plasma glucose nadir (healthy volunteers [4]; fasting healthy volunteers n = 8, s.c. 1.5 nmol/kg, from around 5 mmol/L, nadir at 30 min, mean) | Time of plasma glucose nadir (healthy volunteers [4]; fasting healthy volunteers n = 8, s.c. GLP‐1 1.5 nmol/kg, exenatide 10 μg) | Time at which intact GLP‐1 reached basal levels ([5]; 1.5 nmol/kg GLP‐1 s.c.) | Total plasma GLP‐1 concentration, peak mean value on the GLP‐1 day ([5]; 1.5 nmol/kg GLP‐1 s.c., total = GLP‐1 7–36amide + 9–36amide, reached within 15 min, still elevated at 120 min, radioimmunoassay, mean) | Time of peak or plateau plasma concentration of the injected peptide (exendin‐4 or total GLP‐1 assay) ([5]; s.c., exenatide 10 μg, GLP‐1 and GLP‐1 9–36amide 1.5 nmol/kg) | Effect on plasma pancreatic polypeptide (PP) (in words) (healthy volunteers [6]) | Effect on plasma glucose (in words) (healthy volunteers [4]; fasting healthy volunteers n = 8, s.c. exenatide 10 μg, GLP‐1 9–36amide 1.5 nmol/kg, 0–120 min) | Time at which GLP‐1 9–36amide concentrations reached near basal levels ([5]; 1.5 nmol/kg GLP‐1 9–36amide s.c.) | Plasma concentration of the metabolite GLP‐1 9–36amide (total GLP‐1 assay), peak ([5]; 1.5 nmol/kg GLP‐1 9–36amide s.c., at 30 min, radioimmunoassay, mean)
1 | CC[C@H](C)[C@H](NC(=O)[C@H](Cc1ccccc1)NC(=O)[C@H](CCC(=O)O)NC(=O)[C@H](CCCCN)NC(=O)[C@H](C)NC(=O)[C@H](C)NC(=O)[C@H](CCC(N)=O)NC(=O)CNC(=O)[C@H](CCC(=O)O)NC(=O)[C@H](CC(C)C)NC(=O)[C@H](Cc1ccc(O)cc1)NC(=O)[C@H](CO)NC(=O)[C@H](CO)NC(=O)[C@@H](NC(=O)[C@H](CC(=O)O)NC(=O)[C@H](CO)NC(=O)[C@@H](NC(=O)[C@H](Cc1ccccc1)NC(=O)[C@@H](NC(=O)CNC(=O)[C@H](CCC(=O)O)NC(=O)[C@H](C)NC(=O)[C@@H](N)Cc1c[nH]cn1)[C@@H](C)O)[C@@H](C)O)C(C)C)C(=O)N[C@@H](C)C(=O)N[C@@H](Cc1c[nH]c2ccccc12)C(=O)N[C@@H](CC(C)C)C(=O)N[C@H](C(=O)N[C@@H](CCCCN)C(=O)NCC(=O)N[C@@H](CCCNC(=N)N)C(N)=O)C(C)C [GLP‐1, glucagon‐like peptide‐1] | Neither GLP‐1, GLP‐1_9–36 amide, exenatide nor saline elicited any changes in blood flow parameters | caused a rise in insulin | 60 min | 15 min | 30 min | about 14 beats per min | significantly increased heart rate | tended to rise | appeared to fall more | 3.5 mmol/L | 30 min | around 90 min | around 300 pmol/L | ≤ 15 min | mean PP levels rose late | – | – | –
2 | GLP‐1_9–36amide | Neither GLP‐1, GLP‐1_9–36 amide, exenatide nor saline elicited any changes in blood flow parameters | no significant changes | – | – | – | – | remained stable | – | – | – | – | – | – | – | – | Neither saline nor the metabolite, GLP‐1_9–36amide influenced plasma glucose levels | 120 min | about 290 pmol/L
